Source: ChEMBL document CHEMBL1201862, “PubChem BioAssay data set” (2004)
Values joined by “and” are separate entries in the source; they are usually repeats but may differ in a detail not shown here. Equal values may be shown once.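 48-hour exposure; five concentrations; linearly interpolated endpoints. GI50 marks 50% less growth.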 Active and inactive are the calls of the source. No stated cut-off is given here; in the data, active = GI50 up to about 1.1 µM and inactive = higher.

Experiments:
Experiment in all cases: DTP human tumour cell line panel, 48 h
[1] = test system: CAKI-1
[2] = test system: HL-60
[3] = test system: OVCAR-4
[4] = test system: SNB-19
[5] = test system: SK-MEL-28
[6] = test system: U-251
[7] = test system: HCT-15
[8] = test system: Malme-3M
[9] = test system: ACHN
[10] = test system: KM12
[11] = test system: SF-295
[12] = test system: SF-268
[13] = test system: K562
[14] = test system: EKVX
[15] = test system: A549
[16] = test system: UO-31
[17] = test system: HCT-116

Cc1cn(Cc2ccccc2CCO)c(=S)[nH]c1=O
GI50 [1]: > 100 µM (inactive) | GI50 [2]: > 100 µM (inactive) | GI50 [3]: > 100 µM (inactive) | GI50 [4]: > 100 µM (inactive) | GI50 [5]: > 100 µM (inactive) | GI50 [6]: > 100 µM (inactive) | GI50 [7]: > 100 µM | GI50 [8]: > 100 µM (inactive) | GI50 [9]: > 100 µM (inactive) | GI50 [10]: > 100 µM (inactive) | GI50 [11]: > 100 µM (inactive) | GI50 [12]: > 100 µM (inactive) | GI50 [13]: > 100 µM (inactive) | GI50 [14]: > 100 µM (inactive) | GI50 [15]: > 100 µM (inactive) | GI50 [16]: > 100 µM (inactive)

CC(=O)OCC1OC(N2C(=O)C(=O)c3cc(C)ccc32)C(OC(C)=O)C(OC(C)=O)C1OC(C)=O (stereo unspecified)
GI50 [1]: > 100 µM (inactive) | GI50 [2]: 22.4 µM (inactive) | GI50 [3]: > 100 µM (inactive) | GI50 [4]: > 100 µM (inactive) | GI50 [5]: 32.5 µM (inactive) | GI50 [6]: > 100 µM (inactive) | GI50 [7]: 52.8 µM | GI50 [8]: > 100 µM (inactive) | GI50 [9]: 50.9 µM (inactive) | GI50 [10]: > 100 µM (inactive) | GI50 [11]: > 100 µM (inactive) | GI50 [17]: 59.7 µM (inactive) | GI50 [12]: 49.5 µM (inactive) | GI50 [13]: > 100 µM (inactive) | GI50 [14]: > 100 µM (inactive) | GI50 [15]: > 100 µM (inactive) | GI50 [16]: > 100 µM (inactive)

O=C1c2ccccc2-c2c3c(cc4ccnc1c24)OCO3 [LIRIODENINE]
GI50 [1]: 3.63 µM (inactive) and 3.77 µM (inactive) | GI50 [2]: 3 µM (inactive) | GI50 [3]: 5.07 µM (inactive) and 8.24 µM (inactive) | GI50 [4]: 5.68 µM (inactive) and 8 µM (inactive) | GI50 [5]: 5.58 µM (inactive) and 5.27 µM (inactive) | GI50 [6]: 6.32 µM (inactive) and 5.45 µM (inactive) | GI50 [7]: 4.9 µM and 4.42 µM | GI50 [8]: 3.59 µM (inactive) and 3.03 µM (inactive) | GI50 [9]: 3.94 µM (inactive) and 4.32 µM (inactive) | GI50 [10]: 6.44 µM (inactive) and 6.5 µM (inactive) | GI50 [11]: 6.12 µM (inactive) and 4.86 µM (inactive) | GI50 [17]: 3.29 µM (inactive) and 3.17 µM (inactive) | GI50 [12]: 6.14 µM (inactive) and 6.03 µM (inactive) | GI50 [13]: 3.42 µM (inactive) and 4.29 µM (inactive) | GI50 [14]: 3.46 µM (inactive) and 5.15 µM (inactive) | GI50 [15]: 3.48 µM (inactive) and 3.47 µM (inactive) | GI50 [16]: 4.94 µM (inactive) and 3.42 µM (inactive)

Cc1c2c(c(C)c3c1[nH]c1ccccc13)CN(C)CC2
GI50 [1]: 13.2 µM (inactive) | GI50 [2]: 52 µM (inactive) | GI50 [3]: 23.4 µM (inactive) | GI50 [4]: 27.4 µM (inactive) | GI50 [5]: 19.2 µM (inactive) | GI50 [6]: 12.1 µM (inactive) | GI50 [7]: 15.3 µM | GI50 [8]: 16.7 µM (inactive) | GI50 [9]: 18.2 µM (inactive) | GI50 [10]: 16.6 µM (inactive) | GI50 [11]: 17.1 µM (inactive) | GI50 [17]: 16 µM (inactive) | GI50 [12]: 20.3 µM (inactive) | GI50 [13]: 31.3 µM (inactive) | GI50 [15]: 17.9 µM (inactive) | GI50 [16]: 19.5 µM (inactive)
